{"source": "ChEMBL document CHEMBL5634108", "about": "“The latest perspectives of small molecules FMS kinase inhibitors” (Eur J Med Chem, 2023)", "key": {"Aurora kinase C [1]": {"target": "T1, Aurora kinase C (Homo sapiens, UniProt Q9UQB9)", "T1 sequence (Q9UQB9 whole entry)": "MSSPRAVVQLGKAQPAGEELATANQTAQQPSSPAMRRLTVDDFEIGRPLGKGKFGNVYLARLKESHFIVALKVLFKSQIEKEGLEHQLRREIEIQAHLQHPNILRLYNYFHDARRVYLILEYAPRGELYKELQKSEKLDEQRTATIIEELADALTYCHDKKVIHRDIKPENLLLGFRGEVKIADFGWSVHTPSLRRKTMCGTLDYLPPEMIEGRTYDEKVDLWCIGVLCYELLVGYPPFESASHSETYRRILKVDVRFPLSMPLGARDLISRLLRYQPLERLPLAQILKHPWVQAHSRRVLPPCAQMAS", "test": "Inhibition of human AURKC by discoverX kinome scan assay"}, "Aurora kinase C [2]": {"target": "T1, Aurora kinase C", "test": "Inhibition of AURKC (unknown origin)"}, "[3]": {"target": "T2, Vascular endothelial growth factor receptor 2 (Homo sapiens, UniProt P35968)", "T2 sequence (P35968 whole entry)": "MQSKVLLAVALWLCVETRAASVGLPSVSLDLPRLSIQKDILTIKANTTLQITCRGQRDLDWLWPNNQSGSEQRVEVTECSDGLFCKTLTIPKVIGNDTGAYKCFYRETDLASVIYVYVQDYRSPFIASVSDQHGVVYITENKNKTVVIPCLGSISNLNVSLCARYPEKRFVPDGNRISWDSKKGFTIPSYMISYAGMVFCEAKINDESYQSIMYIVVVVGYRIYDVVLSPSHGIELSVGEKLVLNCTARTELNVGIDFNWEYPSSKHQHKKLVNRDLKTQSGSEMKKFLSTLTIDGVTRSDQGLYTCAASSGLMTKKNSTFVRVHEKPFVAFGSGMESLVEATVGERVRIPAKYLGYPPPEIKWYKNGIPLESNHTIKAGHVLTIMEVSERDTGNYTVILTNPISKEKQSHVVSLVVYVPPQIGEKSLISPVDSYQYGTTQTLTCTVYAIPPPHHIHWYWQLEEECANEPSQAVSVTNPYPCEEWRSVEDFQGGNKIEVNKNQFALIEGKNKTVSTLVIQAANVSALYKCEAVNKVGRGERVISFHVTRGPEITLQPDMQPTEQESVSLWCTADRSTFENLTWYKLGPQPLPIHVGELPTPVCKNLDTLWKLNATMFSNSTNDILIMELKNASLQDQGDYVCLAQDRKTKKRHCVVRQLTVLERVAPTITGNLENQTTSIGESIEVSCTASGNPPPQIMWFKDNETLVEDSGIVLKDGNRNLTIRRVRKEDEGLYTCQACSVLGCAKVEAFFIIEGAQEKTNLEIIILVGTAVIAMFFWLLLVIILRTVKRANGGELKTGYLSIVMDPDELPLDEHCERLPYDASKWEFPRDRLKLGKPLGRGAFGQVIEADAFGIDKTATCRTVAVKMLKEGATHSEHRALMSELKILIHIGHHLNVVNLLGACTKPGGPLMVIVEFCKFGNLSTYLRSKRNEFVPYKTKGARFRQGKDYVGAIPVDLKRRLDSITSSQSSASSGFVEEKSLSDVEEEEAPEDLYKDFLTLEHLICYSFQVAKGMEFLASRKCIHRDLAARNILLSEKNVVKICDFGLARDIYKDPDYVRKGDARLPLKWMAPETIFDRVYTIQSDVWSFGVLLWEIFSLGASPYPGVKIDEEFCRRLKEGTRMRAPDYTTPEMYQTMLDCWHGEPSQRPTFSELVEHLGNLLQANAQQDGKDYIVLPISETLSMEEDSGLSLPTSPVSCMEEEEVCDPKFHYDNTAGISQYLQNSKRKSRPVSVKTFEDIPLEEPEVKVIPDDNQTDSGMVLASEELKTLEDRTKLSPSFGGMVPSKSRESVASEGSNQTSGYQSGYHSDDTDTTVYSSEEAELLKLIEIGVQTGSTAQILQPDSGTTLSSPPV", "test": "Inhibition of KDR (unknown origin)"}, "[4]": {"target": "Receptor-type tyrosine-protein kinase FLT3 (Homo sapiens, UniProt P36888, ITD)", "test": "Inhibition of FLT3 ITD mutant (unknown origin) preincubated for 60 mins followed by ATP addition and measured after 1 hr by ADP-Glo assay"}, "[5]": {"target": "T3, Mast/stem cell growth factor receptor Kit (Homo sapiens, UniProt P10721)", "T3 sequence (P10721 whole entry)": "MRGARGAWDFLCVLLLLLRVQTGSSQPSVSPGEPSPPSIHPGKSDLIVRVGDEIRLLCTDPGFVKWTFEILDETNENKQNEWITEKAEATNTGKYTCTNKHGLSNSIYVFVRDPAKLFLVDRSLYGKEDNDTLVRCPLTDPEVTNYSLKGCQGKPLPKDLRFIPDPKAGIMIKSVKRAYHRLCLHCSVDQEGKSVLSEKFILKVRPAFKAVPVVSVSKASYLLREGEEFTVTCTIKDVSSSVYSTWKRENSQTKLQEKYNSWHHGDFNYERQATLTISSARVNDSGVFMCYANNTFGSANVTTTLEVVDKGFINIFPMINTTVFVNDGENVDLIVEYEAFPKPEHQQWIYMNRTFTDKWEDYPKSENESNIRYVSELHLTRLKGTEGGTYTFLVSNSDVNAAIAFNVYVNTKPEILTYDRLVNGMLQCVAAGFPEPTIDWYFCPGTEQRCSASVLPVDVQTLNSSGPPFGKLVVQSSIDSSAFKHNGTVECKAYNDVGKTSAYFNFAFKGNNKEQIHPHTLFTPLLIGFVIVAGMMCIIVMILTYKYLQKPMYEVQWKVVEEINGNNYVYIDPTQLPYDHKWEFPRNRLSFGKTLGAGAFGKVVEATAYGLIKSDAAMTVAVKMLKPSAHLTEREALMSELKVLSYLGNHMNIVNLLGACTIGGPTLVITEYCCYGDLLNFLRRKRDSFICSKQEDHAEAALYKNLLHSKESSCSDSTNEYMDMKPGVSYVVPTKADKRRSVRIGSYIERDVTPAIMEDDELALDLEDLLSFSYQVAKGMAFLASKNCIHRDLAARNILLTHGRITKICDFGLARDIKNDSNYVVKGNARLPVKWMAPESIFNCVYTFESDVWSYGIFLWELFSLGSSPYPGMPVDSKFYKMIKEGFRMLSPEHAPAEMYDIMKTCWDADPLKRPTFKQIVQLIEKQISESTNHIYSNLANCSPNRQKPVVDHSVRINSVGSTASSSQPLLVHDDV", "test": "Inhibition of KIT (unknown origin) using ATP as substrate incubated for 1 hrs by ELISA"}, "[6]": {"target": "Receptor-type tyrosine-protein kinase FLT3 (Homo sapiens) (UniProt P36888)", "test": "Inhibition of FLT3 (unknown origin) at 10 uM by biochemical Hotspot kinase assay relative to control"}, "[7]": {"target": "Vascular endothelial growth factor receptor 1 (Homo sapiens, UniProt P17948)", "test": "Inhibition of FLT1 (unknown origin)"}, "[8]": {"target": "T2, Vascular endothelial growth factor receptor 2", "test": "Inhibition of VEGFR-2 (unknown origin) in presence of ATP incubated for 45 mins by ELISA method"}, "[9]": {"target": "T4, Tyrosine-protein kinase Lck (Homo sapiens, UniProt P06239)", "test": "Inhibition of LCK (unknown origin) using TK as substrate incubated for 30 mins by HTRF assay"}, "[10]": {"target": "T5, NT-3 growth factor receptor (Homo sapiens, UniProt Q16288)", "T5 sequence (Q16288 whole entry)": "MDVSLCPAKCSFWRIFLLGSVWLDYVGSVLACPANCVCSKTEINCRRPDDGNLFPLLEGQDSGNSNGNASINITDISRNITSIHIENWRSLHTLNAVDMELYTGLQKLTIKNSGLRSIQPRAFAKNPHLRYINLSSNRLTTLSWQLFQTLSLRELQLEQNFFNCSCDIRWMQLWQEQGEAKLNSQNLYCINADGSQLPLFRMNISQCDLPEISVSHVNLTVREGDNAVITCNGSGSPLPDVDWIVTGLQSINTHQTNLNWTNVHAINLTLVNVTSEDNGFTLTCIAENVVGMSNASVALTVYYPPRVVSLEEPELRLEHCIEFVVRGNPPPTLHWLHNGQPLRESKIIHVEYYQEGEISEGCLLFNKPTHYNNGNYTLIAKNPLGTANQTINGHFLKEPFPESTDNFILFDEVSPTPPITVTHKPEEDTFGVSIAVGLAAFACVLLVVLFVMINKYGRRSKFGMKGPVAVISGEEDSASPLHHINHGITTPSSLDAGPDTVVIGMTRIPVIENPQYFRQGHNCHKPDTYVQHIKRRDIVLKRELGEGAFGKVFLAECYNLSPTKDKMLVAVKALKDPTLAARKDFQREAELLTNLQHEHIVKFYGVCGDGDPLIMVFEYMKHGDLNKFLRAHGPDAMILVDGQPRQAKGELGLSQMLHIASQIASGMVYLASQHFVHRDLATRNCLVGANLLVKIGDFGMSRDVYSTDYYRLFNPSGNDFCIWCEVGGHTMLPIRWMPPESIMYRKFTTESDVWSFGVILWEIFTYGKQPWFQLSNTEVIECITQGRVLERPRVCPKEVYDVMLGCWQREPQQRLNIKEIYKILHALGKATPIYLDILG", "test": "Inhibition of TRKC (unknown origin)"}, "[11]": {"target": "T5, NT-3 growth factor receptor", "test": "Inhibition of TRKC (unknown origin) by TR-FRET assay"}, "[12]": {"target": "T3, Mast/stem cell growth factor receptor Kit", "test": "Inhibition of c-Kit (unknown origin) in presence of ATP"}, "[13]": {"target": "T6, Tyrosine-protein kinase receptor UFO (Homo sapiens, UniProt P30530)", "T6 sequence (P30530 whole entry)": "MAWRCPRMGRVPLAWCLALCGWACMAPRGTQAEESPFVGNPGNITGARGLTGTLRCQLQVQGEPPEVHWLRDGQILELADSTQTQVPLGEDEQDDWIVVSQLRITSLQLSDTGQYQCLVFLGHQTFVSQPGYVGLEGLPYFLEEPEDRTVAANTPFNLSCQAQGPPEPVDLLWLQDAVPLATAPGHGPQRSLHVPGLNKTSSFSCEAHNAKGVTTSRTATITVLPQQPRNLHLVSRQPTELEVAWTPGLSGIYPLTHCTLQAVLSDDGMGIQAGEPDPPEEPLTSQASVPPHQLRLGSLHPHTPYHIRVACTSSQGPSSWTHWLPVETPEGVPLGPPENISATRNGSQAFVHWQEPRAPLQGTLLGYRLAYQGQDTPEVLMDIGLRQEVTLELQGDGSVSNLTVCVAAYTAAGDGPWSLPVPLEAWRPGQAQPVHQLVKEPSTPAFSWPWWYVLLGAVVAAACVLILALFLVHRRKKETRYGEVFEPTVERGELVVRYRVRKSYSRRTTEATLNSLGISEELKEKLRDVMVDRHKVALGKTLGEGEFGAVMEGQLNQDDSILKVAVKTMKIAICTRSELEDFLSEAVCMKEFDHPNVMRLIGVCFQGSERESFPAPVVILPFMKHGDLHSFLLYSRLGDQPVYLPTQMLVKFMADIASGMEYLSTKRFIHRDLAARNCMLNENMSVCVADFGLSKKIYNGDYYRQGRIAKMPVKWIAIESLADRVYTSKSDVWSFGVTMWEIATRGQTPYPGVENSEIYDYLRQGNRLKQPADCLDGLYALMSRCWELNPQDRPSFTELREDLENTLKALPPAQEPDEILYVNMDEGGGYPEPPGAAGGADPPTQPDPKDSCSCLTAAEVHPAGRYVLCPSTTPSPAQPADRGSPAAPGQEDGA", "test": "Inhibition of AXL (unknown origin) by FRET assay"}, "[14]": {"target": "T7, Macrophage colony-stimulating factor 1 receptor (Homo sapiens, UniProt P07333)", "T7 sequence (P07333 whole entry)": "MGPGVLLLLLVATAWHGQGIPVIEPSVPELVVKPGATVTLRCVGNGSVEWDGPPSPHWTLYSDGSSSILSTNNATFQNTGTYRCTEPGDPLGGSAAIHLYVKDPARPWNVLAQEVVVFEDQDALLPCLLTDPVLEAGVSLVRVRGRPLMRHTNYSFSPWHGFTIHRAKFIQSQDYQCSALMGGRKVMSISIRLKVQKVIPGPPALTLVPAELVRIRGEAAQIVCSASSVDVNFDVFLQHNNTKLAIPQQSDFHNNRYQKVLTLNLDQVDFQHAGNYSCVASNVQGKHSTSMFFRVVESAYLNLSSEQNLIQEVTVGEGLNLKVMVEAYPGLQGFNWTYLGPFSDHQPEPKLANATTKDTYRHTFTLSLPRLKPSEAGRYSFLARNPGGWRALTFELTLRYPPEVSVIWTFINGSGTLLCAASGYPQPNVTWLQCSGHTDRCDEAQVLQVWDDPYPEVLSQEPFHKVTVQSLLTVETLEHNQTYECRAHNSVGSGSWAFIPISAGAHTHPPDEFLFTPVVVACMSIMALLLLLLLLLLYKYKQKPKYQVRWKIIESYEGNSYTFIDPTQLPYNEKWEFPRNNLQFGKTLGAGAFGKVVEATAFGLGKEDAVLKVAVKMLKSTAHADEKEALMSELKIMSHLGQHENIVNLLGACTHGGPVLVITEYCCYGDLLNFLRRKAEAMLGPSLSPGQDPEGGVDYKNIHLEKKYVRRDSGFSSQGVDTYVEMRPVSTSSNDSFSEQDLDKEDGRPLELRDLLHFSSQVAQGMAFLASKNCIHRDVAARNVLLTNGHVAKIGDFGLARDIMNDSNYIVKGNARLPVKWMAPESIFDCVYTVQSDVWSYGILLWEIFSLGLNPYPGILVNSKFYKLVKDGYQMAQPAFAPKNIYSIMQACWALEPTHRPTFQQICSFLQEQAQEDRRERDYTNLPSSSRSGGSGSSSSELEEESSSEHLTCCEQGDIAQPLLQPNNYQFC", "test": "Inhibition of CSF1R (unknown origin)"}, "[15]": {"target": "Receptor-type tyrosine-protein kinase FLT3 (Homo sapiens) (UniProt P36888)", "test": "Inhibition of FLT3 (unknown origin) at 10 uM relative to control"}, "SF-268": {"test_system": "SF-268", "test": "Growth inhibition of human SF-268 cells by sulforhodamine B assay", "assay_type": "functional"}, "[16]": {"target": "T7, Macrophage colony-stimulating factor 1 receptor", "test": "Inhibition of FMS (unknown origin) by kinase assay"}, "[17]": {"target": "T4, Tyrosine-protein kinase Lck", "test": "Inhibition of LCK (unknown origin) at 10 uM using 33P-ATP as substrate by biochemical Hotspot kinase assay relative to control"}, "[18]": {"target": "T8, Receptor-type tyrosine-protein kinase FLT3 (Homo sapiens, UniProt P36888)", "T8 sequence (P36888 whole entry)": "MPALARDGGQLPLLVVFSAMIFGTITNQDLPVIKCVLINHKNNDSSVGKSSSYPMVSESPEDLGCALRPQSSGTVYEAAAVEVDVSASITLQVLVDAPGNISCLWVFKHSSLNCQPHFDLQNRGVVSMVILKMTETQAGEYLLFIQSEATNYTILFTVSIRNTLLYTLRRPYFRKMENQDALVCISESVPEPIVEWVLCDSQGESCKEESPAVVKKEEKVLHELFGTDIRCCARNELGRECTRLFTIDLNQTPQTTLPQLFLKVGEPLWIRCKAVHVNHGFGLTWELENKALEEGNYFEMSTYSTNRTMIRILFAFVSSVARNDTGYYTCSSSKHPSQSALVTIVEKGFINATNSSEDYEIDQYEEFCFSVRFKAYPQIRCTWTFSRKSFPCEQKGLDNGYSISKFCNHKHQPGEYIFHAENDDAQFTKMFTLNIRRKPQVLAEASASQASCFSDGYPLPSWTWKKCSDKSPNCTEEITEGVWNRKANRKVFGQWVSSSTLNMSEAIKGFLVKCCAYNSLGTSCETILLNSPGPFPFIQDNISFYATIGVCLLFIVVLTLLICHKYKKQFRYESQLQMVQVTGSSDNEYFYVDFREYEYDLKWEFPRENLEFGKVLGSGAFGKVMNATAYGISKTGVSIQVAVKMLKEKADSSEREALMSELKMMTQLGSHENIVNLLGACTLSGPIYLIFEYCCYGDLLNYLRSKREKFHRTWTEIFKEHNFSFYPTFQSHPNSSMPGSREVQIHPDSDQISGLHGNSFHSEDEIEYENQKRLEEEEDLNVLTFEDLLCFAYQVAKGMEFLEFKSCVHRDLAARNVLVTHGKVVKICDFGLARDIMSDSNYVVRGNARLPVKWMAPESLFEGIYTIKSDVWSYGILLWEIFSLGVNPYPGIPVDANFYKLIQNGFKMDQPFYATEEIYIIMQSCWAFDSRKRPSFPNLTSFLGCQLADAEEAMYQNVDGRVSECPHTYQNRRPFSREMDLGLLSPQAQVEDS", "test": "Inhibition of FLT3 (unknown origin) by enzymatic assay"}}, "data": [{"smiles": "COc1nc(F)ccc1CNc1ccc(Cc2c[nH]c3ncc(C)cc23)c(F)n1", "values": [{"measurement": "IC50", "setting": "Aurora kinase C [1]", "value": 0.016, "unit": "µM"}, {"measurement": "IC50", "setting": "Aurora kinase C [2]", "value": 1, "unit": "µM"}, {"measurement": "IC50", "setting": "[3]", "value": 1.1, "unit": "µM"}, {"measurement": "IC50", "setting": "[4]", "value": 0.39, "unit": "µM"}, {"measurement": "IC50", "setting": "[5]", "value": 0.86, "unit": "µM"}]}, {"smiles": "COc1ccc(Oc2nc(Nc3ccc(N4CCCCC4)nc3)ncc2NC(=O)c2cc(OC)cc(OC)c2)cc1", "values": [{"measurement": "inhibition", "setting": "[6]", "value": 14.5, "unit": "%"}]}, {"smiles": "FC(F)(F)c1ccc(CNc2ccc(Cc3c[nH]c4ncc(Cl)cc34)cn2)cn1", "note": "[PEXIDARTINIB]", "values": [{"measurement": "IC50", "setting": "[7]", "value": 0.88, "unit": "µM"}, {"measurement": "IC50", "setting": "[8]", "value": 0.35, "unit": "µM"}, {"measurement": "IC50", "setting": "[9]", "value": 0.86, "unit": "µM"}, {"measurement": "IC50", "setting": "[10]", "value": 0.89, "unit": "µM"}, {"measurement": "IC50", "setting": "[11]", "value": 0.02, "unit": "µM"}]}, {"smiles": "CNC(=O)c1nccc2cc(-c3cncc(Nc4ccc(OC5CC5)nc4)c3C)[nH]c12", "values": [{"measurement": "IC50", "setting": "[12]", "value": 0.00113, "unit": "µM"}]}, {"smiles": "CNC(=O)c1cc2c(Oc3ccc(NC(=S)NC(=O)Cc4ccccc4)cc3F)ccnc2cc1OC", "note": "[TAS-115]", "values": [{"measurement": "IC50", "setting": "[13]", "value": 0.015, "unit": "µM"}]}, {"smiles": "COc1ccc(COc2ncc(Oc3ccnc(C(=O)N[11CH3])c3)cc2OC)cc1", "values": [{"measurement": "IC50", "setting": "[14]", "value": 0.012, "unit": "µM"}]}, {"smiles": "Cc1nc2[nH]cc(Cc3ccc(NCc4ccc(C(F)(F)F)nc4)nc3)c2c(C)c1O", "values": [{"measurement": "IC50", "setting": "[14]", "value": 57.8, "unit": "µM"}, {"measurement": "IC50", "setting": "[12]", "value": 1.63, "unit": "µM"}, {"measurement": "inhibition", "setting": "[15]", "value": 8.12, "unit": "%"}]}, {"smiles": "Nc1nccc2c1ccn2-c1cccc(NC(=O)c2ccc(N3CCOCC3)c(C(F)(F)F)c2)c1", "values": [{"measurement": "IC50", "setting": "[14]", "value": 0.03, "unit": "µM"}]}, {"smiles": "COc1cc(NC(=O)Nc2cnc(Nc3ccc(N4CCOCC4)cc3)nc2Oc2cccc(OC)c2)cc(OC)c1", "values": [{"measurement": "GI50", "setting": "SF-268", "value": 50.3, "unit": "µM"}, {"measurement": "IC50", "setting": "[16]", "value": 0.015, "unit": "µM"}]}, {"smiles": "COc1ccc(Oc2nc(Nc3ccc(N4CCOCC4)cc3)ncc2NC(=O)c2cccc(SC)c2)cc1", "values": [{"measurement": "inhibition", "setting": "[17]", "value": 87.7, "unit": "%"}]}, {"smiles": "CC1(C)CC=C(c2nc(C3CC(C)(C)OC(C)(C)C3)ccc2NC(=O)c2nc(C#N)c[nH]2)CC1", "note": "[EDICOTINIB]", "values": [{"measurement": "IC50", "setting": "[18]", "value": 0.19, "unit": "µM"}]}]}
